Test results as given in US10899754B2, “Modulators of indoleamine 2,3-dioxygenase” (GLAXOSMITHKLINE INTELLECTUAL PROPERTY DEVELOPMENT LIMITED, priority 2016, dated 2021).

Key:
Format in all cases: cell-based
[1] = system: human peripheral blood mononuclear cells (PBMC); experiment: PBMC cytotoxicity assay (CellTiter-Glo); settings: 2 days, pCC50
In short: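 Human PBMC (50,000 cells/well) stimulated with IFN-γ 100 ng/ml and LPS 50 ng/ml were exposed to 11-point 3-fold compound dilutions for 2 days at 37 °C, 5% CO2. Viability read by CellTiter-Glo ATP luminescence and normalized to no-cell and stimulated-DMSO controls. XC50 derived by four-parameter fit.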

[2] = target: T1, indoleamine 2, 3-dioxygenase (IDO1) (Homo sapiens, UniProt P14902); experiment: IDO1 HeLa RapidFire MS assay (kynurenine detection by mass spectrometry); set-up: to induce the expression of indoleamine 2, 3-dioxygenase (IDO1); settings: HeLa cells, pIC50, read-out: IDO1_HELA_PXC50 (converted)
T1 sequence (P14902 whole entry): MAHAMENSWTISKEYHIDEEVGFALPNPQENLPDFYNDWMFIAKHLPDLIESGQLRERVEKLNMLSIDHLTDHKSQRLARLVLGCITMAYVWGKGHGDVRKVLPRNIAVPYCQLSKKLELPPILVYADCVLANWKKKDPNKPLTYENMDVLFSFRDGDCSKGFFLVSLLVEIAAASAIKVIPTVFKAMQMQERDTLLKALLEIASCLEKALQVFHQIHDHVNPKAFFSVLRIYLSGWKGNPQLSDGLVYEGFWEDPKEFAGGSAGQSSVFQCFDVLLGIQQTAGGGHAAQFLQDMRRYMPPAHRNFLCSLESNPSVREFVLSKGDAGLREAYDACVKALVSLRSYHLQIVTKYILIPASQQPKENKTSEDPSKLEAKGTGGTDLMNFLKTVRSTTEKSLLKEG
In short: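 Compound potency reported as pIC50 from kynurenine/internal-standard ratio (RapidFire MS) in supernatant of IFN-γ-induced (10 nM) HeLa cells, 5,000 per well, after 2 days' treatment with 11-point dilutions. Cytotoxicity in the same format by luminescent ATP detection, reported as pCC50.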

[3] = target: T1, indoleamine 2, 3-dioxygenase (IDO1); experiment: IDO1 PBMC RapidFire MS assay (kynurenine detection by mass spectrometry); set-up: to induce the expression of indoleamine 2, 3-dioxygenase (IDO1); host or cells: human PBMC stimulated with IFN-gamma and LPS; settings: human PBMC stimulated with IFN-γ and LPS, 2 days, pIC50, read-out: PBMC PXC50 (converted)
In short: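 PBMCs (50,000 cells/well) stimulated with IFN-γ 100 ng/ml plus LPS 50 ng/ml, treated with 11-point 3-fold compound series for 2 days at 37° C. Supernatant kynurenine measured by RapidFire MS, normalised to internal standard; parallel cytotoxicity by CellTiter-Glo luminescence; curves fitted for XC50.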

[4] = system: human epithelial HeLa cells; experiment: HeLa cytotoxicity assay (CellTiter-Glo); settings: pCC50
In short: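 HeLa cells (5,000/well) stimulated with 10 nM IFN-γ, exposed to 11-point 3-fold compound dilutions for 2 days at 37 °C; viability by CellTiter-Glo ATP luminescence. Normalized to cell-free (100% cytotoxicity) and stimulated-cell DMSO (0%) controls; four-parameter fit gives pCC50.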

Row | IC50 [2] [µM] | IC50 [3] [µM] | Compound | PBMC TOX PXC50 [1] | HELA_IDO1_TOX_PXC50 [4]
1 | 0.0158 | 0.00794 | CC(C)CN(c1ccc(-c2ccccc2C(=O)O)cc1Nc1nc(C(F)(F)F)ns1)[C@H]1CC[C@H](O)CC1 [Example 112, 4′-(((1r,4r)-4-hydroxycyclohexyl) (isobutyl)amino)-3′-((3-(trifluoromethyl)-1,2,4-thiadiazol-5-yl)amino)-[1,1′-biphenyl]-2-carboxylic Acid] | 6.1 | <5
2 | 0.01 | 0.00501 | CC(C)CN(c1ccc(C(C)OCC(=O)O)cc1Nc1ccc(C#N)cn1)C1CCCCC1 (centres unmarked) [Example 113, 2-(1-(3-((5-cyanopyridin-2-yl)amino)-4-(cyclohexyl(isobutyl)amino)phenyl)ethoxy)acetic Acid] | <5 | <5
3 | 3.16 | 2 | CC(C)CN(CC(C)C)c1ccc(C(C)CC(=O)O)cc1Nc1nc(-c2ccccc2)ns1 (centres unmarked) [example 115, 3-{4-[bis(2-methylpropyl)amino]-3-[(3-phenyl-1,2,4-thiadiazol-5-yl)amino]phenyl}butanoic acid] | 4.9 | <4.3
4 | > 10 | > 10 | Cc1nc(C)c(Nc2cc(C(C)CC(=O)O)ccc2N(CC(C)C)CC(C)C)s1 (centres unmarked) [example 139, 3-{4-[bis(2-methylpropyl)amino]-3-[(2,4-dimethyl-1,3-thiazol-5-yl)amino]phenyl}butanoic acid] | <5 | <5
5 | 2 | 2.51 | CC(C)CN(c1ccc(C(C)CC(=O)O)cc1NC1=N[C@H](C)CO1)C1CCCCC1 (stereo partly drawn) [example 151, 3-{4-[cyclohexyl(2-methylpropyl)amino]-3-{[(4R)-4-methyl-4,5-dihydro-1,3-oxazol-2-yl]amino}phenyl}butanoic acid] | <5 | <5
6 | 3.16 | 3.16 | CC(C)CN(c1ccc(C(C)CC(=O)O)cc1NC1=N[C@@H](C)CO1)C1CCCCC1 (stereo partly drawn) [example 152, 3-{4-[cyclohexyl(2-methylpropyl)amino]-3-{[(4S)-4-methyl-4,5-dihydro-1,3-oxazol-2-yl]amino}phenyl}butanoic acid] | <5 | 5.4
7 | 3.98 | 2 | CC(C)CN(c1ccc(C(C)CC(=O)O)cc1NC1=N[C@@H](c2ccccc2)CO1)C1CCCCC1 (stereo partly drawn) [example 153, 3-{4-[cyclohexyl(2-methylpropyl)amino]-3-{[(4S)-4-phenyl-4,5-dihydro-1,3-oxazol-2-yl]amino}phenyl}butanoic acid] | <5 | <5
8 | 0.0316 | 0.02 | CC(C)CN(c1ccc(C(C)CC(=O)O)cc1NC1=N[C@@H](C(F)(F)F)CS1)C1CCCCC1 (stereo partly drawn) [example 154, 3-{4-[cyclohexyl(2-methylpropyl)amino]-3-{[(4S)-4-(trifluoromethyl)-4,5-dihydro-1,3-thiazol-2-yl]amino}phenyl}butanoic acid] | <5 | <5
9 | 1 | 1.58 | CC(C)CN(c1ccc(C(C)CC(=O)O)cc1NC1=NC(=O)[C@@H](c2ccccc2)N1)C1CCCCC1 (stereo partly drawn) [example 155, 3-{4-[cyclohexyl(2-methylpropyl)amino]-3-{[(5R)-4-oxo-5-phenyl-4,5-dihydro-1H-imidazol-2-yl]amino}phenyl}butanoic acid] | <5 | <5
10 | > 10 | 7.94 | CC(C)CN(CC(C)C)c1ccc(C(C)CC(=O)O)cc1Nc1ncccn1 (centres unmarked) [example 156, 3-{4-[bis(2-methylpropyl)amino]-3-[(pyrimidin-2-yl)amino]phenyl}butanoic acid] | <5 | <5
11 | 1 | 0.794 | CC(C)CN(CC(C)C)c1ccc(C(C)CC(=O)O)cc1NC1CCCCC1 (centres unmarked) [example 157, 3-{4-[bis(2-methylpropyl)amino]-3-(cyclohexylamino)phe-nyl}butanoic acid] | <5 | <5
12 | 1 | 0.631 | CC(C)CN(c1ccc(C(C)CC(=O)O)cc1NC1CCC(C)CC1)C1CCCCC1 (centres unmarked) [example 158, 3-{4-[cyclohexyl(2-methylpropyl)amino]-3-[(4-methylcyclohexyl)ami-no]phenyl}butanoic acid] | <5 | <5
13 | > 10 | > 10 | CC(C)CN(c1ccc(C(C)CC(=O)O)cc1NCc1ncccn1)C1CCCCC1 (centres unmarked) [example 160, 3-{4-[cyclohexyl(2-methylpropyl)amino]-3-{[(pyrimidin-2-yl)methyl]amino}phenyl} butanoic acid] | <5 | <5
14 | 2.51 | 2 | CC(C)CN(c1ccc(C(C)CC(=O)O)cc1NCc1ccccn1)C1CCCCC1 (centres unmarked) [example 161, 3-{4-[cyclohexyl(2-methylpropyl)amino]-3-{[(pyridin-2-yl)methyl]amino}phenyl} butanoic acid] | <5 | <5
15 | 1 | 0.398 | CC(C)CN(c1ccc(C(C)CC(=O)O)cc1NCc1ccc(F)c(F)c1)C1CCCCC1 (centres unmarked) [example 162, 3-{4-[cyclohexyl(2-methylpropyl)amino]-3-{[(3,4-difluorophenyl)methyl]amino}phenyl}butanoic acid] | <5 | <5
16 | 2 | 3.16 | CC(C)CN(c1ccc(C(C)CC(=O)O)cc1NC1=NC(=O)[C@@H](C)N1)C1CCCCC1 (stereo partly drawn) [example 163, 3-{4-[cyclohexyl(2-methylpropyl)amino]-3-{[(5R)-5-methyl-4-oxo-4,5-dihydro-1H-imidazol-2-yl]amino}phenyl}butanoic acid] | <5 | <5
17 | 0.631 | 0.316 | CC(C)CN(c1ccc(C(C)CC(=O)O)cc1NC1=NC(=O)[C@H](C)N1)C1CCCCC1 (stereo partly drawn) [example 164, 3-{4-[cyclohexyl(2-methylpropyl)amino]-3-{[(5S)-5-methyl-4-oxo-4,5-dihydro-1H-imidazol-2-yl]amino}phenyl}butanoic acid] | <5 | <5
18 | 0.794 | 1.58 | CC(C)CN(c1ccc(C(C)CC(=O)O)cc1NC1=NC(=O)[C@H](c2ccccc2)N1)C1CCCCC1 (stereo partly drawn) [example 165, 3-{4-[cyclohexyl(2-methylpropyl)amino]-3-{[(5S)-4-oxo-5-phenyl-4,5-dihydro-1H-imidazol-2-yl]amino}phenyl}butanoic acid] | <5 | <5
19 | 0.01 | 0.000316 | CC[C@@H](CC(=O)O)c1ccc(N(CC(C)C)C2CCCCC2)c(Nc2nc(Cl)ns2)c1 [example 166, (3S)-3-{3-[(3-chloro-1,2,4-thiadiazol-5-yl)amino]-4-[cyclohexyl(2-methylpropyl)amino]phenyl}pentanoic acid] | 5.1 | <5
20 | > 10 | 6.31 | CC(C)CN(CC(C)C)c1ccc(C(C)CC(=O)O)cc1-n1nnnc1N (centres unmarked) [example 167, 3-[3-(5-amino-1H-1,2,3,4-tetrazol-1-yl)-4-[bis(2-methylpropyl)amino]phenyl]butanoic acid] | <5 | <5
21 | > 10 | > 10 | CC(C)CN(CC(C)C)c1ccc(C(C)CC(=O)O)cc1Nc1nnn[nH]1 (centres unmarked) [example 168, 3-{4-[bis(2-methylpropyl)amino]-3-[(1H-1,2,3,4-tetrazol-5-yl)amino]phenyl}butanoic acid] | <5 | <5
22 | 0.0251 | 0.00794 | CC(C)CN(c1ccc([C@H](C)CC(=O)O)cc1Nc1cccc(Cl)n1)C1CCCCC1 [example 169, (3R)-3-{3-[(6-chloropyridin-2-yl)amino]-4-[cyclohexyl(2-methylpropyl)amino]phenyl}butanoic acid] | <5 | <5
23 | 0.501 | 0.316 | CC(C)CN(c1ccc(C(C)OCC(=O)O)cc1Nc1nc2ccccc2o1)C1CCCCC1 (centres unmarked) [example 170, 2-(1-{3-[(1,3-benzoxazol-2-yl)amino]-4-[cyclohexyl(2-methylpropyl)amino]phenyl}ethoxy)acetic acid] | <5 | <5
